# Test results published in patent US6262073A, “Pharmaceutical methods of use of 5-substituted and 5,5 disubstituted-3,4-dihydroxy-2(5H)-furanones” (Oxis International Inc., priority 2000, dated 2001).
# Columns and labels:
# [1] = test system: PGE2 production; details: stimulated macrophages; read-out: Inhibition of PGE2 production IC50; cited from earlier work
# [2] = test system: LTB4 production; details: stimulated macrophages; read-out: Inhibition of LTB4 production IC50; cited from earlier work
# [3] = test system: platelet aggregation; details: read-out: AA-induced platelet aggregation (AAIPA) IC50; cited from earlier work
# [4] = test system: NF-κB; assay: NF-κB nuclear membrane translocation, EMSA, LPS-treated NR8383 cells; format: cell-based; details: Rattus norvegicus; 10,000 nM; LPS 1 μg/ml; NR8383 cells; 6 hours
# Description: Experiments measuring test agents effect on NF-κB nuclear membrane translocation were performed with NR8383 cells, which are transformed rat alveolar macrophages. […] In addition, some compounds were tested at doses of 10 and 30 μM. Untreated control cells and cells treated with LPS alone were tested in each experiment. Cells were harvested 6 hours after treatment. Nuclear proteins were extracted, frozen and quantified using the Bradford assay. Electrophoretic mobility shift assays (EMSA) were subsequently analyzed using a radiolabeled NF-κB probe. Nuclear proteins were reacted with the radiolabeled probe, run on a 5% polyacrylamide gel, and subjected to autoradiography. Specificity of protein binding for the NF-κB binding site was assayed by cold and nonspecific competition using the LPS treated sample in each experiment. All EMSA were duplicated at least once to verify results. Laser densitometry of NF-κB bands was done on autoradiographs to quantify NF-κB binding activity.
# [5] = test system: NF-κB; details: cited from earlier work
# [6] = test system: platelet function; details: cited from earlier work
smiles,measurement,setting,value
"CCCCC/C=C\C/C=C\C/C=C\C/C=C\CC[C@@H]1OC(=O)C(O)=C1O [(S)-3,4-dihydroxy-5[(all Z)-3,6,9,12-octadecatraenyl]-2 (5H)-furanone]",IC50,[1],20 µM
same,IC50,[2],20 µM
same,IC50,[3],< 10 µM
"S=C(S)N1CCCC1 [Pyrrolidone dithiocarbamate (PDTC), Pyrrolidone dithiocarbamate]",inhibition at 10 µM,[4],50%
same,Inhibition of H2O2 and extracellular cytokine-induced activation of NF-κB,[5],inhibit both the H2 O2 and extracellular cytokine-induced activation of NF-κB in a concentration dependent manner
"O=C1OC(c2ccc(Cl)cc2)C(O)=C1O (stereo not drawn) [CHTA, 4-(4-chlorophenyl)-2-hydroxytetronic acid]",Inhibition of platelet function,[6],"inhibits platelet function by a similar mechanism, involving arachidonic acid release"
